Several values for one entry are separate records, joined by “and”; a condition that tells them apart may be missing. Equal values may be shown once.
Columns and labels:
[1] = tested on: patients; assay: Frontal EEG coherence analysis during sevoflurane and propofol general anesthesia (patients, Sedline monitor); format: in vivo, human
[2] = tested on: patients; assay: Frontal EEG spectral analysis during sevoflurane and propofol general anesthesia (patients, Sedline monitor); format: in vivo, human; conditions: mean±std
Description: (§1) The power spectral density, also referred to as the power spectrum or spectrum, quantifies the frequency distribution of energy or power within a signal. The spectrogram is a time-varying version of the spectrum. […] In these spectrograms, frequencies are arranged along the y-axis, and time along the x-axis, and power is indicated by color on a decibel (dB) scale. […] Spectra and spectrograms were computed using the multitaper method, implemented in the Chronux toolbox (http://chronux.orq). The multitaper method was chosen specifically because it allows the spectral resolution to be set precisely, which is desirable in observing many anesthesia-related phenomena. Moreover, for a particular choice of spectral resolution, the multitaper method offers lower bias and lower variance than traditional nonparametric spectral estimation methods.
(§2) Group-level spectrograms were computed by taking the median across volunteers. Spectra were also calculated for selected EEG epochs. The resulting spectra were then averaged for all epochs, and 95% confidence intervals were computed via taper-based jackknife techniques. The spectral analysis parameters included window length T=4 s with 0 s overlap, time-bandwidth product TW=3, number of tapers K=5, and spectral resolution 2 W of 1.5 Hz. Peak power, and its frequency, was estimated for the dex-spindle, travelling peak, and frontal alpha oscillations for each individual subject. Averages across subjects were performed to obtain the group-level peak power and frequency for these oscillations.
(§3) To compare spectral and coherence estimates between groups, jackknife-based methods were used, namely the two-group test for spectra (TGTS), and the two-group test for coherence (TGTC), as implemented by the Chronux toolbox (http://www.chronukorg). This method accounts for the underlying spectral resolution of the spectral and coherence estimates, and considers differences to be significant if they are present for contiguous frequencies over a range greater than the spectral resolution 2 W. Specifically, for frequencies f>2 W, the null hypothesis was rejected only if the test statistic exceeded the significance threshold over a contiguous frequency range ≧2 W. For frequencies 0≦f≦2 W, to account for the properties of multitaper spectral estimates at frequencies close to zero, the null hypothesis was rejected only if the test statistic exceeded the significance threshold over a contiguous frequency range from 0 to max(f,W)≦2 W. A significance threshold of p<0.05 was selected for within group comparisons and p<0.001 for between group comparisons, applying a Bonferonni correction for multiple comparisons where appropriate.

[3] = tested on: volunteers; conditions: for frequency range of increase in coherence on the coherogram compared to baseline: sedation
[4] = tested on: volunteers; conditions: for frequency range of increased power in the spectrogram compared to baseline: sedation, visually evident
Description: as §1, §2, §3
Volunteers were instructed to close their eyes throughout the study to avoid eye-blink artifacts in the EEG. Volunteers were presented with auditory stimuli during the study and asked to respond by button presses to assess the level of conscious behavior. The stimuli consisted of the volunteer's name presented every two minutes. Button-press stimuli were recorded using a custom-built computer mouse with straps fitted to hold the first and second fingers in place over the mouse buttons. The mouse was also lightly strapped to the subject's hand using tape and an arterial line board to ensure that responses could be recorded accurately.
We applied an anti-aliasing filter and down-sampled the EEG data to 250 Hz before analysis. EEG signals were re-montaged to a nearest-neighbor Laplacian reference, using distances along the scalp surface to weigh neighboring electrode contributions. First, 2-minute EEG segments were selected from all subjects during the awake, eyes closed baseline. Eye closure facilitates distinguishing between normal awake, eyes-closed occipital alpha oscillations and the frontal alpha oscillations associated with anesthesia induced altered arousal. EEG data segments were selected based on the behavioral response.

[5] = tested on: dopaminergic arousal pathway; assay: Methylphenidate-induced emergence from isoflurane general anesthesia; plethysmography and blood gas experiments; format: in vivo
Description: MPH can be used to restore consciousness, induce electroencephalogram changes consistent with arousal, and increase respiratory drive. The behavioral and respiratory effects induced by methylphenidate can be inhibited by droperidol, supporting the evidence that methylphenidate induces arousal by activating a dopaminergic arousal pathway.

[6] = tested on: patient; conditions: anesthetized with ketamine alone or in combination with other anesthetic agents; cited from earlier work
[7] = general anesthesia, P<0.001 TGTC
[8] = dexmedetomidine sedation, propofol-induced unconsciousness
[9] = dexmedetomidine sedation, mean±std
[10] = propofol-induced unconsciousness, dexmedetomidine sedation
[11] = propofol-induced unconsciousness

FCOC(C(F)(F)F)C(F)(F)F [sevoflurane]
alpha oscillation coherence peak frequency ([1]; general anesthesia): 9.8 Hz | theta coherence peak frequency ([1]; general anesthesia): 4.9 Hz | theta peak coherence ([1]; general anesthesia): 0.58±0.1 | frequency range in which sevoflurane exhibited increased EEG coherence versus propofol [1, 7]: 3.41-10.7 Hz | frequency at which maximum power and coherence of coherent alpha oscillations occur ([1]; general anesthesia, summary): 10-12 Hz | frequency of coherent theta oscillations ([1]; sevoflurane anesthesia): ~5 Hz | alpha oscillation peak coherence ([1]; sevoflurane general anesthesia): 0.73±0.1 | alpha oscillation peak frequency (EEG power) [2]: 9.2 Hz | alpha oscillation peak power [2]: 4.3 dB

Cc1cccc([C@H](C)c2cnc[nH]2)c1C [dexmedetomidine]
coherence peak frequency (dex-spindle) ([3]; dexmedetomidine sedation): 13.3 Hz | peak coherence (dex-spindle) ([3]; dexmedetomidine sedation): 0.78±0.08 | frequency range of decrease in coherence on the coherogram compared to baseline [3, 8]: 0.1-1 Hz | frequency range of increase in coherence on the coherogram compared to baseline [3]: 1-15 Hz | frequency range in which EEG power was lower than baseline ([4]; dexmedetomidine sedation, P<0.05 TGTS): 17.4-40 Hz | dex-spindle oscillation peak frequency (EEG power) [4, 9]: 13.1 Hz and ~13 Hz | dex-spindle oscillation peak power [4, 9]: −10.2 dB | frequency at which maximum power and coherence of spindles occur ([4]; dexmedetomidine sedation, summary): 13-14 Hz | slow oscillations power [4, 10]: 1.8 dB | frequency range of increased power in the spectrogram compared to baseline [4]: 2-15 Hz

COC(=O)C(c1ccccc1)C1CCCCN1 (centres unmarked) [methylphenidate]
emergence from general anesthesia ([5]; isoflurane general anesthesia): actively induces emergence from isoflurane general anesthesia | minute ventilation ([5]; plethysmography and blood gas experiments): increases minute ventilation

CNC1(c2ccccc2Cl)CCCCC1=O (centres unmarked) [ketamine]
BIS values [6]: high BIS values

CC(C)c1cccc(C(C)C)c1O [propofol]
alpha oscillation coherence peak frequency ([1]; general anesthesia): 10.2 Hz | frequency range in which propofol exhibited increased EEG coherence versus sevoflurane [1, 7]: 11.7-19.5 Hz | alpha oscillation peak coherence ([1]; propofol general anesthesia): 0.71 dB | frequency range in which coherence was higher during propofol-induced unconsciousness than dexmedetomidine sedation ([3]; P<0.0005 TGTC): 9.5-11.7 Hz | frequency ranges in which coherence was larger during propofol-induced sedation than dexmedetomidine sedation ([3]; P<0.0005 TGTC): 19.8-26.4 Hz and 26.9-29.3 Hz | frequency range of decrease in coherence on the coherogram compared to baseline [3, 8]: 0.1-1 Hz | frequency range of decreased slow oscillation coherence versus baseline ([3]; propofol peak max (unconsciousness), P<0.025 TGTC): 0.1-1.7 Hz | coherence peak frequency (traveling-peak) ([3]; propofol sedation): 16.1 Hz | peak coherence (traveling-peak) ([3]; propofol sedation): 0.69±0.05 | alpha oscillation peak coherence [3, 11]: 0.85±0.05 | centre of the narrow band of alpha oscillation coherence [3, 11]: ~10 Hz | frequency range of significant increase in coherence versus baseline ([3]; propofol-induced unconsciousness, P<0.025 TGTC): 4-15.9 Hz | frequency range of increase in coherence on the coherogram compared to baseline [3]: 1-25 Hz | alpha oscillation peak frequency (EEG power) [2]: 10.3 Hz | alpha oscillation peak power [2]: 2.1 dB | frontal alpha oscillations power [4, 11]: 2.5 dB | size of slow oscillations compared with dexmedetomidine sedation [4, 11]: almost an order of magnitude larger | slow oscillations power [4, 10]: 19.2 dB | frequency range of increased power in the spectrogram compared to baseline [4]: 1-25 Hz
